Assay results reported in patent US4205080A, “2,3-Dihydro benzofuran carboxamides” (Shell Oil Company, priority 1979, dated 1980).

Tested on: swine adipose tissue
Assay: inhibition of lipogenesis (lipid synthesis from radioactive glucose) in slices of swine adipose tissue
Assay type: cell-based
Details: 100 micrograms per milliliter test compound; 37° C., 2 hours; glucose-U^14 C; 300 microunits of insulin; 5% DMSO; triplicate
Excerpt: The manner in which they cause this effect is not known with certainty; it is believed that they interfere with the synthesis of fatty acids in the tissues. Their effectiveness for this purpose has been ascertained by immersing samples of swine adipose tissue in a liquid medium containing radioactive glucose and the test chemical for a period of time, then isolating the lipid from the treated tissue and determining the up-take of the radioactive carbon by means of scintillation counting techniques. These tests were conducted in swine adipose tissue because in swine, the primary site of lipogenesis--i.e., fatty acid synthesis--appears to be adipose tissue.
Described in more detail, the tests were conducted according to the following general procedure:
150 milligrams of slices of swine adipose tissue were incubated at 37° C. for 2 hours with shaking in 3 milliliters of Krebs-Ringer bicarbonate solution containing one-half of the normal calcium ion concentration, 60 micromoles of glucose, 0.5 micro-Curie of glucose-U^14 C, and 300 microunits of insulin, and 5% dimethyl sulfoxide (DMSO). The test compound was added as a solution or suspension in DMSO and was present as a concentration of 100 micrograms per milliliter of incubation mixture.
The incubation was terminated by addition of 0.25 milliliter of 1 N sulfuric acid. The resulting mixture was extracted with a total of 25 milliliters of chloroform:methanol (2:1, v/v). The extracts were washed according to Folch et al. (J. Biol. Chem., 226, 497-509, (1957)), air dried, and counted in a liquid scintillation counter with 15 milliliters of counting fluid (two parts toluene containing 0.4% w/v New England Nuclear Omnifluor: 1 part Triton X-100). The tests were conducted in triplicate and were accompanied by control tests in which all ingredients,proportions and conditions were the same except that no test compound was included. From the data obtained were calculated the percent inhibition of lipid synthesis by the test compound. The data obtained are reported as the percent inhibition of lipogenesis compared to the results obtained in the control tests wherein only the test compound was omitted.

SMILES	Percent Inhibition (of lipogenesis compared to control tests) [%]
C=CCNC(=O)C1Cc2cc(Cc3ccccc3)ccc2O1 (stereo not shown) [Compound 4]	64
C=CCNC(=O)C1Cc2cc(-c3ccc(NC(C)=O)cc3)ccc2O1 (stereo not shown) [Compound 7, 5-(4-(Acetylamino)phenyl)-2,3-dihydro-N-(2-propenyl)-2-benzofurancarboxamide]	76
C=CCNC(=O)C1Cc2cc(-c3ccccc3)ccc2O1 (stereo not shown) [Compound 1, 2,3-dihydro-5-phenyl-N-(2-propenyl)-2-benzofurancarboxamide]	59
C=CCNC(=O)C1Cc2c(Oc3ccccc3)cccc2O1 (stereo not shown) [Compound 5]	77
C=CCNC(=O)C1Cc2cc(C3CCCCC3)ccc2O1 (stereo not shown) [Compound 3]	43
C=CCNC(=O)C1Cc2cc(-c3ccc(C(C)O)cc3)ccc2O1 (stereo not shown) [Compound 6, 2,3-Dihydro-5-(4-(1-hydroxyethyl)phenyl)-N-(2-propenyl)-2-benzofurancarboxamide]	40
C=CCNC(=O)C1Cc2cc(C(C)CC)ccc2O1 (stereo not shown) [Compound 2]	66
